What was measured:
[1] = test system: LU2511 tumors; experiment: Erlotinib-resistant NSCLC PDX model LU2511; assay type: in vivo, BALB/c nude mice
Protocol: Tumor fragments from donor mice bearing patient-derived NSCLC xenografts (LU2511) were used for inoculation into BALB/c nude mice. Each mouse was inoculated subcutaneously at the right flank with one tumor fragment (2-3 mm in diameter) and tumors were allowed to grow until the tumor volume was about 200 mm^3. […] The antibodies and ADCs were dosed intravenously (i.v.) at 4 mg/kg on the day of randomization (day 0) and on day 7. Erlotinib was dosed orally (per os) at 50 mg/kg daily for 2 weeks. Tumor volumes (mm^3) were monitored twice weekly and were calculated from caliper (PLEXX) measurements as: 0.5×(length)×(width)^2.

[2] = test system: LU0858; experiment: Erlotinib-resistant NSCLC PDX model LU0858; assay type: in vivo, BALB/c nude mice
Protocol: (§1) Inoculation of tumor fragments into BALB/c nude mice and randomization was performed as described above.
(§2) Erlotinib was given daily for 14 days at a dose of 50 mg/kg. Erlotinib alone, IgG1-b12-vcMMAE and IgG1-b12 were used as controls.

[3] = test system: LU1868; experiment: Erlotinib-resistant NSCLC PDX model LU1868; assay type: in vivo, BALB/c nude mice
Protocol: as §1
Erlotinib was given daily for 14 days at a dose of 50 mg/kg. Treatments with erlotinib alone, IgG1-b12-vcMMAE or IgG1-b12 were included as controls (FIG. 27).

[4] = test system: LXFA 526; experiment: Erlotinib-resistant NSCLC PDX model LXFA 526; assay type: in vivo, NMRI nu/nu mice
Protocol: (§3) Inoculation of tumor fragments into 4-6 weeks old male NMRI nu/nu mice and randomization was performed as described above.
Erlotinib was given daily for 14 days at a dose of 50 mg/kg. Erlotinib alone, IgG1-b12-vcMMAE and IgG1-b12 were used as control.

[5] = test system: LXFA 677; experiment: NSCLC PDX model LXFA 677; assay type: in vivo, NMRI nu/nu mice
Protocol: as §3, §2

[6] = test system: LXFA 677_3; experiment: NSCLC PDX model LXFA 677_3 (acquired resistance to erlotinib); assay type: in vivo, NMRI nu/nu mice
Protocol: as §3, §2

[7] = test system: ES0195 tumors; experiment: Esophageal cancer PDX model ES0195; assay type: in vivo, BALB/c nude mice
Protocol: Tumor fragments from donor mice bearing patient-derived esophageal xenografts (ES0195) were used for inoculation into BALB/c nude mice. Each mouse was inoculated subcutaneously at the right flank with one tumor fragment (2-3 mm in diameter) and tumors were allowed to grow until the tumor volume was about 150 mm^3. […] The antibodies and ADCs were dosed intravenously (i.v.) at 4 mg/kg at day of randomization (day 0) and day 7. Paclitaxel was dosed intra-peritoneally (i.p.) at 20 mg/kg at day 0, 7, and 14. Tumor volumes (mm^3) were monitored twice weekly and were calculated from caliper (PLEXX) measurements as: 0.52×(length)×(width)^2.

[8] = test system: CV1664; experiment: Cervical cancer PDX model CV1664; assay type: in vivo, BALB/c nude mice
Protocol: Inoculation of tumor fragments into BALB/c nude mice and randomization was performed as described in Example 23.

[9] = test system: LCLC-103H cells; experiment: Cytotoxicity assay (CellTiter-Glo) in LCLC-103H cells; assay type: cell-based, human; settings: 5 days incubation
Protocol: (§4) LCLC-103H cells (human large cell lung cancer) and A431 cells (DMSZ, Braunschweig, Germany) were cultured in RPMI 1640 with L-Glutamine (Cambrex; cat.no. BE12-115F) supplemented with 10% (vol/vol) heat inactivated Cosmic Calf Serum (Perbio; cat.no. SH30087.03), 2 mM L-glutamine (Cambrex; cat.no. US17-905C), 50 IU/mL penicillin, and 50 µg/mL streptomycin (Cambrex; cat.no. DE17-603E). MDA-MB231 cells were cultured in DMEM with high glucose and HEPES (Lonza #BE12-709F), Donor Bovine Serum with Iron (Life Technologies #10371-029), 2 mM L-glutamine (Lonza #BE17 -605E), 1 mM Sodium Pyruvate (Lonza #BE13-115E), and MEM Non-Essential Amino Acids Solution (Life Technologies #11140). The cell lines were maintained at 37° C. in a 5% (vol/vol) CO2 humidified incubator. LCLC-103H, A431 and MDA-MB231 cells were cultured to near confluency, after which cells were trypsinized, resuspended in culture medium and passed through a cell strainer (BD Falcon, cat.no. 352340) to obtain a single cell suspension. […]
(§5) Subsequently, 180 μL per well was transferred to white 96-well Optiplate™ plates (PerkinElmer, Waltham, Mass.; cat.no. 6005299), which were incubated for 30 min at room temperature. Finally, luminescence was measured on an EnVision multiplate reader (Envision, Perkin Elmer).

[10] = test system: A431 cells; experiment: Cytotoxicity assay (CellTiter-Glo) in A431 cells; assay type: cell-based; settings: A431 (n = 3), 5 days incubation
Protocol: as §4, §5

[11] = test system: MDA-MB231 cells; experiment: Cytotoxicity assay (CellTiter-Glo) in MDA-MB231 cells; assay type: cell-based; settings: MDA-MB231 (n = 2), 5 days incubation
Protocol: as §4, §5

[12] = test system: LCLC-103H xenograft tumors; experiment: Therapeutic treatment of SC LCLC-103H tumor xenografts (Example 3); assay type: in vivo, SCID mice
Protocol: The in vivo efficacy of MMAE-conjugated anti-AXL antibodies was determined in established subcutaneous (SC) LCLC-103H xenograft tumors in SCID mice. 5×10^6 LCLC-103H (large cell lung carcinoma) tumor cells (obtained from Leibniz-Institut DSMZ-Deutsche Sammlung von Mikroorganismen and Zellkulturen GmbH (DSMZ)) in 200 μL PBS were injected subcutaneously in the right flank of female SCID mice. Starting 14-21 days after tumor cell inoculation, when the average tumor size was >100-200 mm^3 and distinct tumor growth was observed, a single injection with 1 mg/kg (20 μg/mouse) IgG1-AXL-vcMMAE antibodies or control (unconjugated IgG1-b12) was given intraperitoneally (100 μL/mouse). Tumor volume was determined at least two times per week. Tumor volumes (mm^3) were calculated from caliper (PLEXX) measurements as: 0.52×(length)×(width)^2.

[13] = test system: PAXF1657 tumors; experiment: PAXF1657 pancreas cancer PDX model; assay type: in vivo, NMRI nu/nu mice
Protocol: Human pancreas tumor tissue was subcutaneously implanted in the left flank of 5-7 weeks old female NMRI nu/nu mice. […] At day of randomization (day 0), the 3 ADCs were dosed intravenously (i.v.) at either 4 mg/kg or 2 mg/kg, and the control group received a single dose of IgG1-b12 (4 mg/kg). Tumor volumes (mm^3) were monitored twice weekly and were calculated from caliper (PLEXX) measurements as: 0.52×(length)×(width)^2.

[14] = test system: A431 tumors; experiment: A431 xenograft model (high Gas6); assay type: in vivo; settings: 3 mg/kg i.p., SCID mice
Protocol: (§6) Tumor induction was performed by subcutaneous injection of 5×10^6 A431 or LCLC-103H tumor cells (both obtained from Leibniz-Institut—Deutsche Sammlung von Mikroorganismen and Zellkulturen GmbH (DSMZ)) in 200 μL PBS in the right flank of female SCID mice. Treatment was started 14-21 days after tumor cell inoculation, when the average tumor size was >100-200 mm^3 and distinct tumor growth was observed. Mice received a single injection or a total of 4 biweekly intraperitoneal injections with IgG1-AXL-vcMMAE ADCs or control antibody (unconjugated IgG1-b12), as indicated. Tumor volume was determined at least two times per week. Tumor volumes (mm^3) were calculated from caliper (PLEXX) measurements as: 0.52×(length)×(width)^2.

[15] = test system: LCLC-103H tumors; experiment: LCLC-103H xenograft model (low Gas6, Example 5); assay type: in vivo; settings: 1 mg/kg i.p., SCID mice
Protocol: as §6

[16] = 2 doses of 4 mg/kg on days 55 and 62

**Q.** Which results are given for C#Cc1cccc(Nc2ncnc3cc(OCCOC)c(OCCOC)cc23)c1 [erlotinib, reference compound]?
**A.** anti-tumor activity on LU2511 tumors ([1]; 50 mg/kg per os daily for 2 weeks): did not induce anti-tumor activity; effect on tumor growth, LU0858 ([2]; 50 mg/kg daily for 14 days): no effect on tumor growth; effect on tumor growth, LU1868 ([3]; 50 mg/kg daily for 14 days): no effect on tumor growth; effect on tumor growth, LXFA 526 ([4]; 50 mg/kg daily for 14 days): no effect on tumor growth; effect on tumor growth, LXFA 677 ([5]; 50 mg/kg daily for 14 days): induced partial tumor regression; effect on tumor growth, LXFA 677_3 ([6]; 50 mg/kg daily for 14 days): no effect on tumor growth

**Q.** Which “anti-tumor activity on ES0195 tumors” value ([7]; 20 mg/kg i.p. day 0, 7 and 14) does the source give for CC(=O)O[C@H]1C(=O)[C@@]2(C)[C@H]([C@H](OC(=O)c3ccccc3)[C@]3(O)C[C@H](OC(=O)[C@H](O)[C@@H](NC(=O)c4ccccc4)c4ccccc4)C(C)=C1C3(C)C)[C@]1(OC(C)=O)CO[C@@H]1C[C@@H]2O [paclitaxel, reference compound] here?
**A.** tumor growth inhibition

**Q.** What about the “effect on tumor growth, CV1664” value ([8]; 20 mg/kg intraperitoneally day 0 and 7) of the same molecule?
**A.** induced partial tumor regression

**Q.** Which “effect on tumor growth compared to IgG1-b12 control group, CV1664” value ([8]; 4 mg/kg day 0 and 7) does the source give for IgG1-AXL-107 here?
**A.** only induced minor inhibition of tumor growth

**Q.** “IgG1-AXL-107-vcMMAE: anti-AXL antibody 107 (VH SEQ ID No 1, VL SEQ ID No 2) conjugated to MMAE via vc linker” was tested. Which EC50 [9] did it give?
**A.** 0.022 µg/mL

**Q.** And the “EC50 Mean” value [10]?
**A.** 0.154 µg/mL

**Q.** What about the “EC50 Mean” value [11] of the same molecule?
**A.** 0.037 µg/mL

**Q.** What about the complete tumor reduction ([12]; 1 mg/kg single i.p.) of the same molecule?
**A.** in some mice within these groups to complete tumor reduction

**Q.** What about the “tumor volume versus control IgG1-b12” value ([12]; day 30, One Way ANOVA (Dunnett's), 1 mg/kg single i.p.) of the same molecule?
**A.** highly significant difference

**Q.** What about the “anti-tumor activity in established SC LCLC-103H tumors” value ([12]; single i.p. injection 1 mg/kg, SCID mice) of the same molecule?
**A.** induced tumor regression

**Q.** And the “growth of PAXF1657 tumors compared to the control group” value ([13]; 2 mg/kg i.v., day 0)?
**A.** significantly reduced the growth

**Q.** And the “anti-tumor activity on PAXF1657 tumors” value ([13]; 4 mg/kg i.v., day 0)?
**A.** induced tumor regression

**Q.** And the “average tumor size versus isotype control IgG1-b12” value ([13]; day 14, 2 mg/kg or 4 mg/kg, p<0.001 Tukey's multiple comparison test)?
**A.** significantly smaller

**Q.** And the “anti-tumor activity on A431 tumors” value [14]?
**A.** induced growth inhibition

**Q.** And the “anti-tumor activity on LCLC-103H tumors” value [15]?
**A.** induced regression

**Q.** And the “anti-tumor activity on ES0195 tumors” value ([7]; 4 mg/kg i.v. day 0 and day 7)?
**A.** induced tumor regression

**Q.** What about the “anti-tumor activity on LU2511 tumors” value ([1]; 4 mg/kg i.v. day 0 and day 7) of the same molecule?
**A.** induced tumor growth inhibition

**Q.** What about the “effect on tumor growth, LU0858” value ([2]; 2 mg/kg day 0 and 7, alone) of the same molecule?
**A.** no effect on tumor growth

**Q.** And the “effect on tumor growth, LU0858” value ([2]; 4 mg/kg day 0 and 7, alone, compared to IgG1-b12-vcMMAE control)?
**A.** induced tumor growth inhibition

**Q.** What about the “effect on tumor growth, LU1868” value ([3]; 2 mg/kg and 4 mg/kg, day 0 and 7, alone) of the same molecule?
**A.** induced tumor growth inhibition

**Q.** What about the “effect on tumor growth, LXFA 526” value ([4]; 2 mg/kg day 0 and 7) of the same molecule?
**A.** induced tumor growth inhibition

**Q.** And the “effect on tumor growth, LXFA 526” value ([4]; 4 mg/kg day 0 and 7)?
**A.** complete tumor regression in all mice at least until day 76

**Q.** And the “effect on tumor growth, LXFA 677” value ([5]; 2 mg/kg day 0 and 7)?
**A.** induced tumor growth inhibition

**Q.** And the “effect on tumor growth, LXFA 677” value ([5]; 4 mg/kg day 0 and 7)?
**A.** induced partial tumor regression

**Q.** What about the “effect on tumor growth, LXFA 677_3” value ([6]; both dose levels (2 and 4 mg/kg), day 0 and 7, lasted at least until day 41) of the same molecule?
**A.** induced complete tumor regression

**Q.** What about the “retreatment of three mice with tumor regrowth after paclitaxel, CV1664” value [8, 16] of the same molecule?
**A.** Two of the three mice showed complete tumor regression

**Q.** And the “retreatment of two mice with tumor regrowth after initial 4 mg/kg ADC, CV1664” value [8, 16]?
**A.** partial tumor regression in both mice

**Q.** What about the “second retreatment of the one mouse with regrowth after paclitaxel and ADC, CV1664” value ([8]; 2 doses of 4 mg/kg on days 98 and 105) of the same molecule?
**A.** partial tumor regression

**Q.** And the “second retreatment of the same two mice, CV1664” value ([8]; 2 doses of 4 mg/kg on days 105 and 112)?
**A.** partial tumor regression in both animals

**Q.** And the “effect on tumor growth, CV1664” value ([8]; both dose levels (2 or 4 mg/kg), day 0 and 7, lasted at least until day 49)?
**A.** induced strong tumor regression

— US20190233522A1, “NEW DOSAGE REGIMENS FOR ANTIBODY DRUG CONJUGATES BASED ON ANTI-AXL ANTIBODIES” (GENMAB A/S, priority 2016, published 2019)
